# Legend:
# [1] = tested on: Botrytis cinerea; assay: Test B: tomato Botrytis, preventive spray on tomato seedlings, visual disease rating; settings: tomato Botrytis, preventive spray; 100 = 100% disease control, 0 = no control
# From the text: General protocol for preparing test suspensions for Tests A-J: the test compounds were first dissolved in acetone in an amount equal to 3% of the final volume and then suspended at the desired concentration (in ppm) in acetone and purified water (50/50 mix by volume) containing 250 ppm of the surfactant Trem® 014 (polyhydric alcohol esters). The resulting test suspensions were then used in Tests A-J. Spraying a 200 ppm test suspension to the point of run-off on the test plants was the equivalent of a rate of 500 g/ha. Unless otherwise indicated, the rating values indicate a 200 ppm test suspension was used. (An asterisk “*” next to the rating value indicates a 40 ppm test suspension was used.)
# The test suspension was sprayed to the point of run-off on tomato seedlings. The following day the seedlings were inoculated with a spore suspension of Botrytis cinerea (the causal agent of tomato Botrytis) and incubated in saturated atmosphere at 20° C. for 48 h, and then moved to a growth chamber at 24° C. for 3 additional days, after which time visual disease ratings were made.
# [2] = tested on: Alternaria solani; assay: Test C: tomato early blight, preventive spray on tomato seedlings, visual disease rating; settings: tomato early blight, preventive spray; 100 = 100% disease control, 0 = no control
# [3] = tested on: Puccinia recondita f. sp. tritici; assay: Test I: wheat leaf rust, preventive spray on wheat seedlings, visual disease rating; settings: wheat leaf rust, preventive spray; 100 = 100% disease control, 0 = no control
# [4] = tested on: Puccinia recondita f. sp. tritici; assay: Test H: wheat leaf rust, curative spray on inoculated wheat seedlings, visual disease rating; settings: wheat leaf rust, curative spray; 100 = 100% disease control, 0 = no control
# [5] = tested on: Erysiphe graminis f sp. tritici; assay: Test J: wheat powdery mildew, preventive spray on wheat seedlings, visual disease rating; settings: wheat powdery mildew, preventive spray; 100 = 100% disease control, 0 = no control
# [6] = tested on: Septoria tritici; assay: Test G: wheat leaf blotch, preventive spray on wheat seedlings, visual disease rating; settings: wheat leaf blotch, preventive spray; 100 = 100% disease control, 0 = no control
# [7] = tested on: Septoria nodorum; assay: Test F: Septoria glume blotch, preventive spray on wheat seedlings, visual disease rating; settings: Septoria glume blotch on wheat, preventive spray; 100 = 100% disease control, 0 = no control
Structure (SMILES),Test B rating (% disease control) [1],Test C rating (% disease control) [2],Test I rating (% disease control) [3],Test H rating (% disease control) [4],Test J rating (% disease control) [5],Test G rating (% disease control) [6],Test F rating (% disease control) [7]
Cc1ccc(-c2c(C)nn(C)c2Nc2c(F)cc(F)cc2F)cc1 [compound 79],99%,0%,55%,0%,0%,99%,0%
COc1cc(F)c(Nc2c(-c3ccc(C)cc3)c(C)nn2C)c(F)c1 [compound 80],100%,0%,86%,18%,89%,99%,0%
COc1cc(F)c(-c2c(C)nn(C)c2Nc2cc(Cl)c(OC)cc2OC)c(F)c1 [compound 81],97%,0%,27%,0%,0%,0%,0%
COc1cc(F)c(-c2c(C)nn(C)c2Nc2c(F)cc(C#N)cc2F)c(F)c1 [compound 82],100%,100%,68%,0%,13%,99%,40%
COc1cc(F)c(Nc2c(-c3c(F)cc(OC)cc3F)c(C)nn2C)c(F)c1 [compound 83],100%,100%,96%,99%,94%,99%,89%
COc1cc(F)c(-c2c(C)nn(C)c2Oc2c(F)cccc2F)c(F)c1 [compound 84],100%,100%,100%,98%,99%,100%,78%
COc1cc(OC)cc(-c2c(C)nn(C)c2Oc2c(F)cc(C#N)cc2F)c1 [compound 85],0%,0%,19%,0%,0%,17%,0%
Cc1nn(C)c(Oc2c(F)cc(C#N)cc2F)c1-c1ccc(Cl)nc1 [compound 86],0%,0%,0%,0%,0%,48%,0%
COc1cc(F)c(-c2c(C)nn(C)c2Nc2ccc(F)cc2C)c(F)c1 [compound 88],100%,100%,99%,95%,100%,98%,99%
COc1cc(F)ccc1-c1c(C)nn(C)c1Oc1c(F)cc(C#N)cc1F [compound 89],99%,0%,0%,0%,97%,99%,0%
COc1cc(F)c(-c2c(C)nn(C)c2Oc2c(F)cc(Br)cc2F)c(F)c1 [compound 90],99%,95%,98%,0%,100%,100%,84%
Cc1nn(C)c(Nc2c(F)cc(C#N)cc2F)c1-c1c(F)cc(F)cc1F [compound 92],100%,100%,99%,41%,100%,100%,99%
COc1ccc(Nc2c(-c3c(F)cc(F)cc3F)c(C)nn2C)cc1OC [compound 93],41%,0%,9%,0%,0%,77%,0%
COc1ccc(Nc2c(-c3c(F)cc(F)cc3F)c(C)nn2C)cn1 [compound 94],99%,70%,9%,0%,0%,98%,29%
COc1cc(F)c(-c2c(C)nn(C)c2Nc2ccc(OC)nc2)c(F)c1 [compound 95],99%,16%,0%,0%,0%,97%,0%
Cc1nn(C)c(Oc2ccc(C#N)cc2F)c1-c1c(F)cc(F)cc1F [compound 96],99%,99%,99%,9%,100%,100%,99%
Cc1cc(F)ccc1-c1c(C)nn(C)c1Oc1c(F)cc(C#N)cc1F [compound 97],100%,99%,99%,0%,99%,100%,95%
Cc1nn(C)c(Oc2ccc(C#N)cc2Cl)c1-c1c(F)cc(F)cc1F [compound 98],100%,17%,99%,26%,99%,100%,69%
Cc1nn(C)c(Oc2cc(F)c(C#N)cc2F)c1-c1c(F)cc(F)cc1F [compound 99],100%,99%,100%,40%,100%,99%,100%
COc1cc(OC)c(Nc2c(-c3c(F)cc(F)cc3F)c(C)nn2C)cc1Cl [compound 100],38%,0%,41%,0%,0%,48%,0%
